Data published in the NIST ThermoML archive (doi:10.1021/acs.jced.8b00807).
Numbers after ± are expanded uncertainties.

Experiment: Boiling temperature at pressure P
Details: 101.3 kPa; Liquid; Ebulliometric method (Recirculating still)

Boiling temperature at pressure P [°C]	Structure (SMILES)
116.40 ± 0.2	CC(=O)OCC(C)C [2-methylpropyl ethanoate]
57.1 ± 0.2	COC(C)=O [methyl ethanoate]
142.00 ± 0.2	CC(=O)OCCC(C)C [3-methylbutyl ethanoate]

Structure (SMILES)	Boiling temperature at pressure P [°C]
Cc1ccc(C)cc1 [1,4-dimethylbenzene]	138.34 ± 0.2
